According to US8324264B1, “Inhibitors of bacterial biofilms and related methods” (Sequoia Sciences, Inc., priority 2011, dated 2012):
≈ marks a conversion by molar mass, not a printed value. Where a name gives a salt, the structure may show the parent alone.

How the values were obtained:
[1] = system: E. coli biofilms; assay: Biofilm growth assay (spreading biofilm on semi-solid agar), E. coli; type: cell-based; conditions: biofilm growth assay, overnight 37° C., vs negative controls, Tables 1-5; for IC85: Escherichia coli, read-out: E. coli: concentration that reduces the area of the spreading biofilm by greater than or equal to 85%
How it was run: (§1)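 Compound added to semi-solid agar: M8 with 0.2% glucose, 100 μM CaCl2, 1 mM MgSO4, 0.5% Casamino acids (P. aeruginosa) or LB with 0.6% agar, 0.5% glucose (E. coli). Center-inoculated with 5 μL overnight culture, incubated overnight at 37 °C; value is concentration (μg/ml) reducing spreading area ≥85% versus negative controls.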

[2] = system: P. aeruginosa biofilms; assay: Biofilm growth assay (spreading biofilm on semi-solid agar), P. aeruginosa; type: cell-based; conditions: biofilm growth assay, overnight 37° C., vs negative controls, Tables 1-5; for IC85: Pseudomonas aeruginosa, read-out: P. aeruginosa: concentration that reduces the area of the spreading biofilm by greater than or equal to 85%
How it was run: as §1

melting point | Compound | E. coli: concentration that reduces the area of the spreading biofilm by greater than or equal to 85% [1] [µg/mL] | P. aeruginosa: concentration that reduces the area of the spreading biofilm by greater than or equal to 85% [2] [µg/mL] | IC85 [1] [µg/mL] | IC85 [2] [µg/mL]
260 to 280 °C (dec.) | CC1(C)CC[C@]2(C(=O)n3cnc(S)n3)CC[C@]3(C)C(=CCC4[C@@]5(C)Cc6c(n[nH]c6N)C(C)(C)C5CC[C@]43C)C2C1 (stereo partly drawn) (as salt: ammonium) [Compound 76, ((4aS,6aS,6bR,13aR)-12-Amino-2,2,6a,6b,9,9,13a-heptamethyl-2,3,4,4a,5,6,6a,6b,7,8,8a,9,11,13,13a,13b,14,15b-octadecahydro-1H-chryseno[1,2-f]indazol-4-a-yl)(3-mercapto-1H-1,2,4-triazol-1-yl)methanone] | – | – | – | –
230 to 250 °C (dec.) | CC1(C)CC[C@]2(C(=O)n3ccnc3N)CC[C@]3(C)C(=CCC4[C@@]5(C)Cc6c(n[nH]c6N)C(C)(C)C5CC[C@]43C)C2C1 (stereo partly drawn) (as salt: ammonium) [Compound 73, (2-Amino-1H-imidazol-1-yl)((4aS,6aS,6bR,13aR)-12-amino-2,2,6a,6b,9,9,13a-heptamethyl-2,3,4,4a,5,6,6a,6b,7,8,8a,9,11,13,13a,13b,14,15b-octadecahydro-1H-chryseno[1,2-f]indazol-4-a-yl)methanone] | – | – | – | –
170 to 190 °C (dec.) | CC1(C)CC[C@]2(C(=O)O)CC[C@]3(C)C(=C(c4ccc5c(c4)CCN5)CC4[C@@]5(C)Cc6c(n[nH]c6N)C(C)(C)[C@@H]5CC[C@]43C)[C@@H]2C1 (stereo partly drawn) (as salt: ammonium) [Example 11, (4aS,6aS,6bR,13aR)-12-Amino-15-(indolin-5-yl)-2,2,6a,6b,9,9,13a-heptamethyl-2,3,4,4a,5,6,6a,6b,7,8,8a,9,11,13,13a,13b,14,15b-octadecahydro-1H-chryseno[1,2-f]indazole-4-a-carboxylic acid] | – | – | – | –
> 300 °C | CN(C)c1ccc(C2=C3[C@@H]4CC(C)(C)CC[C@]4(C(=O)O)CC[C@@]3(C)[C@]3(C)CC[C@H]4C(C)(C)c5n[nH]c(N)c5C[C@]4(C)C3C2)cc1 (stereo partly drawn) (as salt: ammonium) [Example 10, (4aS,6aS,6bR,13aR)-12-Amino-15-(4-(dimethylamino)phenyl)-2,2,6a,6b,9,9,13a-heptamethyl-2,3,4,4a,5,6,6a,6b,7,8,8a,9,11,13,13a,13b,14,15b-octadecahydro-1H-chryseno[1,2-f]indazole-4-a-carboxylic acid] | – | – | – | –
– | CN1CCN(Cc2occc2C2=C3[C@@H]4CC(C)(C)CC[C@]4(C(=O)O)CC[C@@]3(C)[C@]3(C)CC[C@H]4C(C)(C)c5n[nH]c(N)c5C[C@]4(C)C3C2)CC1 (stereo partly drawn) [Example 36, (4aS,6aS,6bR,8aR,13aR,15bS)-12-Amino-2,2,6a,6b,9,9,13a-heptamethyl-15-(2-((4-methylpiperazin-1-yl)methyl)furan-3-yl)-2,3,4,4a,5,6,6a,6b,7,8,8a,9,11,13,13a,13b,14,15b-octadecahydro-1H-chryseno[1,2-f]indazole-4-a-carboxylic acid] | 2 | >1 | – | –
– | CC1(C)CC[C@]2(c3nnc(S)[nH]3)CC[C@]3(C)C(=CCC4[C@@]5(C)Cc6c(n[nH]c6N)C(C)(C)C5CC[C@]43C)C2C1 (stereo partly drawn) [Compound 75, 5-((4aS,6aS,6bR,13aR)-12-Amino-2,2,6a,6b,9,9,13a-heptamethyl-2,3,4,4a,5,6,6a,6b,7,8,8a,9,11,13,13a,13b,14,15b-octadecahydro-1H-chryseno[1,2-f]indazol-4-a-yl)-4H-1,2,4-triazole-3-thiol] | 1 | 0.5 | – | –
– | Cn1cc2c(n1)C(C)(C)C1CC[C@]3(C)C(CC=C4C5CC(C)(C)CC[C@]5(C(=O)O)CC[C@]43C)[C@@]1(C)C2 (stereo partly shown) [E] | – | – | > 16 | 2 (≈ 4.06 µM)
– | Cc1nnc(S)n1NC(=O)[C@]12CCC(C)(C)CC1C1=CCC3[C@@]4(C)Cc5c(n[nH]c5N)C(C)(C)C4CC[C@@]3(C)[C@]1(C)CC2 (stereo partly drawn) [Compound 77, (4aS,6aS,6bR,13aR)-12-Amino-N-(3-mercapto-5-methyl-4H-1,2,4-triazol-4-yl)-2,2,6a,6b,9,9,13a-heptamethyl-2,3,4,4a,5,6,6a,6b,7,8,8a,9,11,13,13a,13b,14,15b-octadecahydro-1H-chryseno[1,2-f]indazole-4-a-carboxamide] | – | – | 2 (≈ 3.3 µM) | 1 (≈ 1.65 µM)
– | CC1(C)CC[C@]2(CN)CC[C@]3(C)C(=CCC4[C@@]5(C)Cc6c(n[nH]c6N)C(C)(C)C5CC[C@]43C)C2C1 (stereo partly drawn) [Compound 63, (4aS,6aS,6bR,13aR)-4-a-(Aminomethyl)-2,2,6a,6b,9,9,13a-heptamethyl-2,3,4,4a,5,6,6a,6b,7,8,8a,9,11,13,13a,13b,14,15b-octadecahydro-1H-chryseno[1,2-f]indazol-12-amine] | – | – | 1 (≈ 2.09 µM) | 4 (≈ 8.35 µM)
– | CN1CCN(c2ccc(C3=C4C5CC(C)(C)CC[C@]5(C(=O)O)CC[C@@]4(C)[C@]4(C)CCC5C(C)(C)c6n[nH]c(N)c6C[C@]5(C)C4C3)cn2)CC1 (stereo partly drawn) [Example 56, (4aS,6aS,6bR,13aR)-12-Amino-2,2,6a,6b,9,9,13a-heptamethyl-15-(6-(4-methylpiperazin-1-yl)pyridin-3-yl)-2,3,4,4a,5,6,6a,6b,7,8,8a,9,11,13,13a,13b,14,15b-octadecahydro-1H-chryseno[1,2-f]indazole-4-a-carboxylic acid] | 2 | 1 | – | –
– | CC1(C)CC[C@]2(c3nnco3)CC[C@]3(C)C(=CCC4[C@@]5(C)Cc6c(n[nH]c6N)C(C)(C)C5CC[C@]43C)C2C1 (stereo partly drawn) [Compound 67, (4aS,6aS,6bR,13aR)-2,2,6a,6b,9,9,13a-Heptamethyl-4-a-(1,3,4-oxadiazol-2-yl)-2,3,4,4a,5,6,6a,6b,7,8,8a,9,11,13,13a,13b,14,15b-octadecahydro-1H-chryseno[1,2-f]indazol-12-amine] | 2 | 1 | – | –
– | CC1(C)CC[C@]2(C(=O)Nc3nnc(S(N)(=O)=O)s3)CC[C@]3(C)C(=CCC4[C@@]5(C)Cc6c(n[nH]c6N)C(C)(C)C5CC[C@]43C)C2C1 (stereo partly drawn) [Compound 80, (4aS,6aS,6bR,13aR)-12-Amino-2,2,6a,6b,9,9,13a-heptamethyl-N-(5-sulfamoyl-1,3,4-thiadiazol-2-yl)-2,3,4,4a,5,6,6a,6b,7,8,8a,9,11,13,13a,13b,14,15b-octadecahydro-1H-chryseno[1,2-f]indazole-4-a-carboxamide] | 1 | 1 | – | –
– | CC1(C)CC[C@]2(C(=O)O)CC[C@]3(C)C(=C(c4ccoc4CN4CCOCC4)CC4[C@@]5(C)Cc6c(n[nH]c6N)C(C)(C)[C@@H]5CC[C@]43C)[C@@H]2C1 (stereo partly drawn) [Example 32, (4aS,6aS,6bR,8aR,13aR,15bS)-12-Amino-2,2,6a,6b,9,9,13a-heptamethyl-15-(2-(morpholinomethyl)furan-3-yl)-2,3,4,4a,5,6,6a,6b,7,8,8a,9,11,13,13a,13b,14,15b-octadecahydro-1H-chryseno[1,2-f]indazole-4-a-carboxylic acid] | 1 | 0.5 | – | –
– | CC1(C)CC[C@]2(C(=O)O)CC[C@]3(C)C(C(=O)C=C4[C@@]5(C)Cc6c(n[nH]c6N)C(C)(C)[C@@H]5CC[C@]43C)[C@@H]2C1 (stereo partly shown) [M] | – | – | 8 (≈ 15.8 µM) | 8 (≈ 15.8 µM)
– | CC1(C)CC[C@]2(C(=O)O)CC[C@]3(C)C(=C(c4coc(CN5CCNCC5)c4)CC4[C@@]5(C)Cc6c(n[nH]c6N)C(C)(C)C5CC[C@]43C)C2C1 (stereo partly drawn) [Example 39, (4aS,6aS,6bR,13aR)-12-Amino-2,2,6a,6b,9,9,13a-heptamethyl-15-(5-(piperazin-1-ylmethyl)furan-3-yl)-2,3,4,4a,5,6,6a,6b,7,8,8a,9,11,13,13a,13b,14,15b-octadecahydro-1H-chryseno[1,2-f]indazole-4-a-carboxylic acid] | 2 | 1 | – | –
– | CC1(C)CC[C@]2(C(=O)O)CC[C@]3(C)C(=C(Cl)CC4[C@@]5(C)Cc6c(n[nH]c6N)C(C)(C)C5CC[C@]43C)C2C1 (stereo partly drawn) [Example 24, (4aS,6aS,6bR,13aR)-12-Amino-15-chloro-2,2,6a,6b,9,9,13a-heptamethyl-2,3,4,4a,5,6,6a,6b,7,8,8a,9,11,13,13a,13b,14,15b-octadecahydro-1H-chryseno[1,2-f]indazole-4-a-carboxylic acid] | – | – | 1 (≈ 1.89 µM) | 0.5 (≈ 0.947 µM)
– | C=C(C)[C@@H]1CC[C@]2(C(=O)O)CC[C@]3(C)[C@H](CC[C@@H]4[C@@]5(C)CC[C@H](O)C(C)(C)[C@@H]5CC[C@]43C)[C@@H]12 [Betulinic acid, reference compound] | – | – | > 16 | > 16
– | Cc1ccc(C2=C3C4CC(C)(C)CC[C@]4(C(=O)O)CC[C@@]3(C)[C@]3(C)CCC4C(C)(C)c5n[nH]c(N)c5C[C@]4(C)C3C2)cc1N (stereo partly drawn) [Example 20, (4aS,6aS,6bR,13aR)-12-Amino-15-(3-amino-4-methylphenyl)-2,2,6a,6b,9,9,13a-heptamethyl-2,3,4,4a,5,6,6a,6b,7,8,8a,9,11,13,13a,13b,14,15b-octadecahydro-1H-chryseno[1,2-f]indazole-4-a-carboxylic acid] | 2 | 0.5 | – | –
– | CC1(C)CC[C@]2(C(=O)O)CC[C@]3(C)C(=CCC4[C@@]5(C)CC6=NCN=C6C(C)(C)C5CC[C@]43C)C2C1 (stereo partly shown) [F] | – | – | > 8 | 4 (≈ 8.36 µM)
